From patent publication US12590091B2, “1H-pyrrolo[3,2-C]pyridine and 1H-pyrrolo[2,3-C]pyridine derivatives as TLR9 inhibitors for the treatment of fibrosis” (BRISTOL-MYERS SQUIBB COMPANY, priority 2020, dated 2026)

Biological target: T1, human TLR9 (Homo sapiens, UniProt Q9NR96)
T1 construct: host or cells: HEK-Blue cells
T1 sequence (Q9NR96 26-1032): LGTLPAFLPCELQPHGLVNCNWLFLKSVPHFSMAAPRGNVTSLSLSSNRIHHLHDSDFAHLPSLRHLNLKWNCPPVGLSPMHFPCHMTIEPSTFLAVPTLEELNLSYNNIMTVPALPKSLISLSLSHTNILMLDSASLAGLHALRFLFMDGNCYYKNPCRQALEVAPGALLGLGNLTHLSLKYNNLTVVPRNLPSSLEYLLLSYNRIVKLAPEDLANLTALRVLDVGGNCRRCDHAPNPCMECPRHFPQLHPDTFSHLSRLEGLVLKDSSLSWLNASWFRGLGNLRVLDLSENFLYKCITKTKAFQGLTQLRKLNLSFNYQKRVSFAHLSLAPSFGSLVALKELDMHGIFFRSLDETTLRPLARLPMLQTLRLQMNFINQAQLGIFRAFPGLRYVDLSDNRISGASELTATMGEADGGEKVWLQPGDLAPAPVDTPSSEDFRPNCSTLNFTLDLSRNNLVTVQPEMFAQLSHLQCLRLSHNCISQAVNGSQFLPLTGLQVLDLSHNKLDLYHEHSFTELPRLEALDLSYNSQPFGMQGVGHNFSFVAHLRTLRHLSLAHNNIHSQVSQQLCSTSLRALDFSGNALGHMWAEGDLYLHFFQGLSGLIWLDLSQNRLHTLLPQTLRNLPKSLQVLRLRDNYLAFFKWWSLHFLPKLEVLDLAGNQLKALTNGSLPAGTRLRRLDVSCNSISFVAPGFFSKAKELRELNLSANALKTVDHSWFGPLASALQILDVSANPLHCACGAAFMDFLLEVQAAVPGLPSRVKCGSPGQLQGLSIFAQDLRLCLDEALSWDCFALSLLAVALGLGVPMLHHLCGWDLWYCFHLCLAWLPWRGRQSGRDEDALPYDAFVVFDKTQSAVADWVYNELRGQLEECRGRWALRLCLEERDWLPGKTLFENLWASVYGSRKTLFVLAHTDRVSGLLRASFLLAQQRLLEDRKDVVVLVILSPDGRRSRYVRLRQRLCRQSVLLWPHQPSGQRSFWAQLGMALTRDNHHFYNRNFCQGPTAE
Assay: TLR9 inhibition reporter assay (HEK-Blue cells, SEAP reporter)
Format: cell-based
Settings: HEK-Blue cells overexpressing human TLR9, stimulated with ODN2006 5 nM, 22 hour incubation
Experimental: TLR7/8/9 Inhibition Reporter Assays
HEK-Blue™-cells (Invivogen) overexpressing human TLR7, TLR8 or TLR9 receptors were used for screening inhibitors of these receptors using an inducible SEAP (secreted embryonic alkaline phosphatase) reporter gene under the control of the IFN-β minimal promoter fused to five NF-κB and AP-1-binding sites. Briefly, cells are seeded into Greiner 384 well plates (15000 cells per well for TLR7, 20,000 for TLR8 and 25,000 for TLR9) and then treated with test compounds in DMSO to yield a final dose response concentration range of 0.05 nM-50 μM. […] After a 22 hour incubation at 37° C., 5% CO2, SEAP levels are determined with the addition of HEK-Blue™ Detection reagent (Invivogen), a cell culture medium that allows for detection of SEAP, according to manufacturer's specifications. The percent inhibition is determined as the % reduction in the HEK-Blue signal present in wells treated with agonist plus DMSO alone compared to wells treated with a known inhibitor.

IC50 [nM] | Compound
147 | COCCN1C2CCC1CN(c1cc(F)c(-c3cc4c(cc(-c5ccc(S(C)(=O)=O)cc5)n4C)c(C)n3)cc1F)C2 [Example 78, 6-(2,5-difluoro-4-(8-(2-methoxyethyl)-3,8-diazabicyclo[3.2.1]octan-3-yl)phenyl)-1,4-dimethyl-2-(4-(methylsulfonyl)phenyl)-1H-pyrrolo[3,2-c]pyridine]
59 | Cc1nc(-c2ccc(CN3CCN(CCC(C)(C)O)CC3)cc2)cc2c1cc(-c1ccc(S(C)(=O)=O)cc1)n2C1CC1 [Example 116, 4-[4-[[4-[1-cyclopropyl-4-methyl-2-(4-methylsulfonylphenyl)pyrrolo[3,2-c]pyridin-6-yl]phenyl]methyl]piperazin-1-yl]-2-methyl-butan-2-ol]
710 | Cc1nc(-c2ccc(N3CCN(C4CCOCC4)CC3)cc2)cc2c1cc(-c1ccc(S(C)(=O)=O)cc1)n2C [Example 35, 1,4-dimethyl-2-(4-(methylsulfonyl)phenyl)-6-(4-(4-(tetrahydro-2H-pyran-4-yl)piperazin-1-yl)phenyl)-1H-pyrrolo[3,2-c]pyridine]
56 | COCCN1CCN(c2ccc(-c3cc4c(cc(-c5ccc(S(C)(=O)=O)cc5)n4C)c(C)n3)cc2)CC1 [Example 38, 6-(4-(4-(2-methoxyethyl)piperazin-1-yl)phenyl)-1,4-dimethyl-2-(4-(methylsulfonyl)phenyl)-1H-pyrrolo[3,2-c]pyridine]
126 | Cc1nc(-c2ccc(N3CC4CCC(C3)N4CCCO)c(F)c2)cc2c1cc(-c1ccc(S(C)(=O)=O)cc1)n2C [Example 77, 3-(3-(4-(1,4-dimethyl-2-(4-(methylsulfonyl)phenyl)-1H-pyrrolo[3,2-c]pyridin-6-yl)-2-fluorophenyl)-3,8-diazabicyclo[3.2.1]octan-8-yl)propan-1-ol]
77 | Cc1nc(-c2ccc(N3CCN(CCCO)CC3)cc2)cc2c1cc(-c1ccc(S(=O)(=O)C3CC3)cc1)n2C [Example 47, 3-(4-(4-(2-(4-(cyclopropylsulfonyl)phenyl)-1,4-dimethyl-1H-pyrrolo[3,2-c]pyridin-6-yl)phenyl)piperazin-1-yl)propan-1-ol]
42 | CC(C)N1CCN(c2ccc(-c3cc4c(cn3)cc(-c3ccc(S(C)(=O)=O)cc3)n4C)cc2)CC1 [Example 54, 6-(4-(4-isopropylpiperazin-1-yl)phenyl)-1-methyl-2-(4-(methylsulfonyl)phenyl)-1H-pyrrolo[3,2-c]pyridine]
47 | Cc1nc(C2CCN(C3CC4CCC(C3)N4CC(C)C)CC2)cc2c1cc(-c1ccc(S(C)(=O)=O)cc1)n2C (centres unmarked) [Example 114, 6-(1-(8-isobutyl-8-azabicyclo[3.2.1]octan-3-yl)piperidin-4-yl)-1,4-dimethyl-2-(4-(methylsulfonyl)phenyl)-1H-pyrrolo[3,2-c]pyridine]
243 | COc1ccc(-c2c(C)[nH]c3cnc(C4CCN(C5CCN(C(=O)OCc6ccccc6)CC5)CC4)cc23)cc1OC [Example 4, Benzyl 4-(3-(3,4-dimethoxyphenyl)-2-methyl-1H-pyrrolo[2,3-c]pyridin-5-yl)-[1,4′-bipiperidine]-1′-carboxylate]
118 | CC(C)(O)CCN1CCN(Cc2ccc(-c3cc4c(cn3)cc(-c3ccc(S(C)(=O)=O)cc3)n4C3CC3)cc2)CC1 [Example 129, 4-(4-(4-(1-cyclopropyl-2-(4-(methylsulfonyl)phenyl)-1H-pyrrolo[3,2-c]pyridin-6-yl)benzyl)piperazin-1-yl)-2-methylbutan-2-ol]
1110 | COc1ccc(-c2c(C)[nH]c3cnc(C4CCN(C(=O)CCN5CCCC5)CC4)cc23)cc1OC [Example 23, 1-(4-(3-(3,4-dimethoxyphenyl)-2-methyl-1H-pyrrolo[2,3-c]pyridin-5-yl)piperidin-1-yl)-3-(pyrrolidin-1-yl)propan-1-one]
18 | Cc1nc(-c2ccc(C3(O)CCN(C(C)C)CC3)c(F)c2)cc2c1cc(-c1ccc(S(C)(=O)=O)cc1)n2C [Example 107, 4-(4-(1,4-dimethyl-2-(4-(methylsulfonyl)phenyl)-1H-pyrrolo[3,2-c]pyridin-6-yl)-2-fluorophenyl)-1-isopropylpiperidin-4-ol]
21 | COc1ccc(-c2cc3cnc(-c4ccc(N5CCN(CC6CC6)CC5)cc4)cc3n2C)cc1OC [Example 9, 6-(4-(4-(Cyclopropylmethyl)piperazin-1-yl)phenyl)-2-(3,4-dimethoxyphenyl)-1-methyl-1H-pyrrolo[3,2-c]pyridine]
92 | CC(C)(O)CN1CC2CCC(C1)N2Cc1ccc(-c2cc3c(cn2)cc(-c2ccc(S(C)(=O)=O)cc2)n3C2CC2)cc1 [Example 130, 1-(8-(4-(1-cyclopropyl-2-(4-(methylsulfonyl)phenyl)-1H-pyrrolo[3,2-c]pyridin-6-yl)benzyl)-3,8-diazabicyclo[3.2.1]octan-3-yl)-2-methylpropan-2-ol]
127 | Cc1nc(-c2ccc(C3(O)CC4CCC(C3)N4C)c(F)c2)cc2c1cc(-c1ccc(S(C)(=O)=O)cc1)n2C [Example 102, (1R,3r,5S)-3-(4-(1,4-dimethyl-2-(4-(methylsulfonyl)phenyl)-1H-pyrrolo[3,2-c]pyridin-6-yl)-2-fluorophenyl)-8-methyl-8-azabicyclo[3.2.1]octan-3-ol]
75 | COCCN1C2CCC1CN(c1ccc(-c3cc4c(cc(-c5ccc(S(C)(=O)=O)cc5)n4C)c(C)n3)cc1F)C2 [Example 75, 6-(3-fluoro-4-(8-(2-methoxyethyl)-3,8-diazabicyclo[3.2.1]octan-3-yl)phenyl)-1,4-dimethyl-2-(4-(methylsulfonyl)phenyl)-1H-pyrrolo[3,2-c]pyridine]
84 | COc1ccc(-c2c(C)[nH]c3cnc(C4CCN(C(=O)CN5CCCCC5)CC4)cc23)cc1OC [Example 16, 1-(4-(3-(3,4-dimethoxyphenyl)-2-methyl-1H-pyrrolo[2,3-c]pyridin-5-yl)piperidin-1-yl)-2-(piperidin-1-yl)ethan-1-one]
2810 | Cc1nc(-c2ccc(N3CCN(CCCO)CC3)c(F)c2F)cc2c1cc(-c1ccc(S(C)(=O)=O)cc1)n2C [Example 55, 3-(4-(4-(1,4-dimethyl-2-(4-(methylsulfonyl)phenyl)-1H-pyrrolo[3,2-c]pyridin-6-yl)-2,3-difluorophenyl)piperazin-1-yl)propan-1-ol]
58 | COCCN1C2CCC1CN(c1ccc(-c3cc4c(cc(-c5ccc(S(C)(=O)=O)cc5)n4C)c(C)n3)cc1)C2 [Example 74, 6-(4-(8-(2-methoxyethyl)-3,8-diazabicyclo[3.2.1]octan-3-yl)phenyl)-1,4-dimethyl-2-(4-(methylsulfonyl)phenyl)-1H-pyrrolo[3,2-c]pyridine]
194 | COc1ccc(-c2c(C)n(C)c3cnc(C4CCN(C5CCN(C(=O)C(C)C)CC5)CC4)cc23)cc1OC [Example 18, 1-(4-(3-(3,4-dimethoxyphenyl)-1,2-dimethyl-1H-pyrrolo[2,3-c]pyridin-5-yl)-[1,4′-bipiperidin]-1′-yl)-2-methylpropan-1-one]
451 | Cc1nc(-c2ccc(CN3CCN(CC(C)(C)O)CC3)cc2)cc2c1cc(-c1ccc(S(C)(=O)=O)cc1)n2C(F)F [Example 124, 1-(4-(4-(1-(difluoromethyl)-4-methyl-2-(4-(methylsulfonyl)phenyl)-1H-pyrrolo[3,2-c]pyridin-6-yl)benzyl)piperazin-1-yl)-2-methylpropan-2-ol]
46 | Cc1nc(-c2ccc(CN3CCN(CC(C)C)CC3)cc2)cc2c1cc(-c1ccc(S(C)(=O)=O)cc1)n2C [Example 57, 6-(4-((4-isobutylpiperazin-1-yl)methyl)phenyl)-1,4-dimethyl-2-(4-(methylsulfonyl)phenyl)-1H-pyrrolo[3,2-c]pyridine]
236 | Cc1nc(-c2ccc(C3CCN(CCCO)CC3)cc2)cc2c1cc(-c1ccc(S(C)(=O)=O)cc1)n2C [Example 41, 3-(4-(4-(1,4-Dimethyl-2-(4-(methylsulfonyl)phenyl)-1H-pyrrolo[3,2-c]pyridin-6-yl)phenyl)piperidin-1-yl)propan-1-ol]
